Source: US8252909B2, “Synthetic C-glycolipid and its use for treating cancer, infectious diseases, and autoimmune diseases” (New York University, priority 2002, dated 2012)
Where “and” joins values, the source holds several entries; their conditions need not be identical. Equal values may be shown once.

How the values were obtained:
[1] = tested on: P. yoelii sporozoites; assay: malaria liver stage development in mice challenged with P. yoelii sporozoites, real-time RT-PCR of 18S rRNA in liver; format: in vivo; conditions: for suppression of P. yoelii liver stages in deficient mice: mice deficient in CD1d, Jα18, IFN-γ or IFN-γ receptor; for suppression of P. yoelii liver stages in deficient mice / malaria liver stage development: 2 μg intraperitoneally two days before challenge; for malaria liver stage development: compared to untreated control; for dose of equal anti-malaria activity (dose response): intraperitoneally three days before challenge
Description: (§1) P. yoelii (17NXL strain) was maintained by alternate cyclic passages in Anopheles stephensi mosquitoes and Swiss Webster mice. Sporozoites obtained from dissected salivary glands of infected mosquitoes 2 weeks after their infective blood were used for challenge of the mice. Challenge of mice to determine the development of liver-stage malaria infection was performed by an intravenous injection of 10,000 viable sporozoites into the tail vein. The outcome of the challenge was determined 40-42 hours later by measuring the parasite burden in the livers of the mice using a quantitative real-time RT-PCR method, as taught in Bruna-Romero et al., Int. J. Parasitol. 31, 1449-1502, 2001. Challenge of mice toe determine the development of blood stage malaria infection was performed by an intravenous injection of 75 viable sporozoites into the tail vein. Starting four days after challenge, daily peripheral blood smears were obtained from each mouse and examined microscopically for the presence of blood stage parasites until day 17 post-challenge. Mice were considered positive for parasitemia if at least one blood stage parasite was observed during the time of examination.
The degree of liver stage development in challenged mice was determined by quantifying the amount of P. yoelii-specific 18S rRNA molecules in the livers of the mice by way of the real-time RT-PCR technique of Bruna-Romero et al. A 2 μg sample of total RNA prepared from the livers of challenged mice was reverse-transcribed, and an aliquot of the resulting cDNA (133 ng) was used for real-time PCR amplification of P. yoelii 18S rRNA sequences. This amplification was performed in a GeneAmp® 5700 Sequence Detection System (PE Applied Biosystems, Foster City, Calif.). For this purpose, primers 5′-[…]-3′ (SEQ. ID NO: 1) (54 nM) and 5′-[…]-3′ (SEQ. ID NO: 2) (60 nm) were used, together with the dsDNA-specific dye SYBR Green I incorporated into the PCR reaction buffer (PE Biosystems, Foster City, Calif.) in order to detect the PCR product generated. The temperature profile of the reaction was 95° C. for 10 minutes followed by 35 cycles of denaturation of 95° C. for 15 seconds and annealing/extension at 60° C. for 1 minute.

[2] = tested on: P. yoelii sporozoites; assay: sporozoite-induced blood stage malaria infection, daily blood smears; format: in vivo; conditions: wild type BALB/c mice, 100 ng intraperitoneally three days before challenge
Description: as §1

[3] = tested on: B16 melanoma cells; assay: melanoma lung metastases, count of metastatic nodules; format: in vivo, C57/BL6 mice; conditions: for dose of equal anti-cancer response (lung metastatic nodules): C57BL/6 mice, intravenously two days before challenge with 5×10^4 B16 cells, lungs checked two weeks later
Description: The development of melanoma lung metastases in C57/BL6 mice was determined by first challenging mice intravenously with 5×10^4 syngeneic B16 melanoma cells suspended in DMEM supplemented with 10% FCS. Two weeks after challenge the mice were sacrificed, the lungs removed, and the number of metastatic nodules counted, as described in Fujii et al., Natl. Immunol. 3, 867-874 (2002).

[4] = tested on: IL-4; assay: serum IL-4 after treatment, sandwich ELISA; format: in vivo; conditions: wild type BALB/c mice, 1 μg intravenously
Description: (§2) The serum concentrations of IFN-γ and IL-4 were measured 2, 6, 12, 24, 48, and 72 hours after treatment with α-GalCer, α-C-GalCer, or nothing by way of a sandwich ELISA (e-bioscience, San Diego). The serum concentrations of IL-12p70 were also measured at 2, 6, 12, 24, 48 and 72 hours after treatment by way of a sandwich ELISA (Pharmingen, San Diego).

[5] = tested on: IFN-γ; assay: serum IFN-γ after treatment, sandwich ELISA; format: in vivo; conditions: wild type BALB/c mice, 1 μg intravenously
Description: as §2

[6] = tested on: IL-12p70; assay: serum IL-12 after treatment, sandwich ELISA; format: in vivo; conditions: wild type BALB/c mice, 1 μg intravenously
Description: as §2

[7] = tested on: P. yoelii sporozoites; conditions: mice, administered two days before challenge with Plasmodium sporozoites (Gonzalez-Aseguinolaza 2000); cited from earlier work
[8] = recent human trials (Shimosaka et al.); cited from earlier work
[9] = independently of dosage (Nakagawa et al., 1998); cited from earlier work
[10] = tested on: liver enzyme activities; conditions: mice, immediately after treatment (Osman et al., 2000); cited from earlier work
[11] = 100 ng intraperitoneally four days before challenge

CCCCCCCCCCCCCCCCCCCCCCCCCC(=O)N[C@@H](CO[C@H]1O[C@H](CO)[C@H](O)[C@H](O)[C@H]1O)[C@H](O)[C@H](O)CCCCCCCCCCCCCC [α-GalCer, (2S,3S,4R)-1-O-(α-D-galactopyranosyl)-2-(N-hexacosanoylamino)-1,3,4-octadecanetriol]
anti-malaria activity in IL-12 deficient mice [1, 11]: no difference in anti-malaria activity
suppression of P. yoelii liver stages in deficient mice [1]: unable to suppress
malaria liver stage development ([1]; wild type BALB/c mice): virtually no liver stage development
dose of equal anti-malaria activity (dose response) ([1]; wild type BALB/c mice): 1 µg
mice completely protected from blood stage malaria [2]: 0 of 10
dose of equal anti-cancer response (lung metastatic nodules) [3]: 100 ng
time of peak serum IL-4 concentration after treatment [4]: 2 h
peak serum IL-4 concentration relative to α-C-GalCer ([4]; 2 hours): roughly 3 times
time at which detectable serum IFN-γ levels start [5]: 6 h
time of peak serum IFN-γ post-treatment [5]: 12 h and 24 h
time of peak serum IL-12 concentration after treatment [6]: 6 h
serum IL-12 levels 12 hours after treatment [6]: undetectable
development of malaria liver stages [7]: suppressed development of malaria liver stages
cytotoxicity in humans [8]: not cytotoxic
toxicity in rodents and monkeys [9]: does not induce toxicity
liver enzyme activities after treatment [10]: transient elevation of liver enzyme activities

CCCCCCCCCCCCCCCCCCCCCCCCCC(=O)N[C@@H](CC[C@H]1O[C@H](CO)[C@H](O)[C@H](O)[C@H]1O)[C@H](O)[C@H](O)CCCCCCCCCCCCCC [α-C-GalCer, 3′S,4′S,5′R-3′-N-hexacosanoyl-4′,5′-dihydroxynonadecyl-α-C-D-galactopyranoside]
anti-malaria activity in IL-12 deficient mice [1, 11]: no difference in anti-malaria activity
potency against malaria relative to α-GalCer ([1]; malaria disease model, mice): 1000 fold
suppression of P. yoelii liver stages in deficient mice [1]: unable to suppress
extension of anti-malaria effect (kinetic effect) ([1]; wild type BALB/c mice, 100 ng intraperitoneally at various times before challenge): up to three days longer than α-GalCer
malaria liver stage development ([1]; wild type BALB/c mice): virtually no liver stage development
dose of equal anti-malaria activity (dose response) ([1]; wild type BALB/c mice): 0.001 µg
suppression of liver stage development, wild type mice ([1]; wild type mice, 100 ng intraperitoneally four days before challenge): suppressed liver stage development to a much greater degree than α-GalCer
mice completely protected from blood stage malaria [2]: 9 of 10
dose of equal anti-cancer response (lung metastatic nodules) [3]: 1 ng
potency against melanoma metastases relative to α-GalCer ([3]; melanoma metastases model, mice): 100 fold
time of peak serum IL-4 concentration after treatment [4]: 2 h
time at which detectable serum IFN-γ levels start [5]: 6 h
time of peak serum IL-12 concentration after treatment [6]: 6 h
peak serum IL-12 concentration relative to α-GalCer ([6]; 6 hours): 2 times
serum IL-12 levels 12 hours after treatment [6]: detectable
